Assay results taken from US20250108026A1, “DROXIDOPA COMPOSITIONS AND METHODS” (XENAMED CORP., priority 2016, published 2025).
≈ marks a conversion by molar mass, not a printed value.

Columns and labels:
Type in all cases: physicochemical
[1] = Solid state stability of droxidopa with pH modifiers under accelerated conditions 70° C./75% RH
Description: Droxidopa is stable in acidic solution, but degrades in neutral or alkaline conditions. […] When citric acid was present with the drug in solid state, e.g. powder or uncoated granules, droxidopa became unstable under accelerated conditions 70° C./75% RH. When these droxidopa granules/pellets were coated with a protective layer, and blended with citric acid, the drug degradation was reduced. Furthermore, a pH modifier monosodium citrate was used instead of citric acid and blended with droxidopa granules. Droxidopa was stable for 7 days under accelerated conditions 70° C./75% RH. […] Thus, salt based pH modifiers can be used to improve the stability of the droxidopa.

[2] = Droxidopa solubility at room temperature at different pH
[3] = Stability of saturated droxidopa solutions at room temperature (UPLC); settings: for Stability of saturated droxidopa in solution: room temperature over 24 days; for Total degradation, 7 day Exposure / Total degradation, 24 day Exposure: saturated solution
Description: Saturated solutions of droxidopa were prepared in 3 diluents at different pH and stored at room temperature for up to 24 days in sealed containers. All solutions were prepared with an excess of droxidopa by combining 10 mg droxidopa per ml of diluent. Exposed samples were filtered and degradation as a percent of initial droxidopa amount was determined by ultra-performance liquid chromatography (UPLC) on a Waters ACQUITY UPLC with a photodiode array (PDA) detector using a Waters ACQUITY HSS PFP 1.8 μm 2.1×100 mm column. Run conditions for the analyses were as follows: • Mobile phase A: 50 mM ammonium formate pH 3.0 • Mobile phase B: Acetonitrile • Detection wavelength: 279 nm • Flow: 0.5 ml/min • Column temperature: 30 C • Injection volume: 1 μl • Gradient (linear transitions) are shown in Table 12B: […]

[4] = Stability of droxidopa dissolved in diluents of different pH (0.5 mg/ml, room temperature, UPLC); settings: for Total degradation, 24-hour Exposure / Total degradation, 48-hour Exposure: room temperature, 0.5 mg/ml
Description: Droxidopa was dissolved in 5 diluents at different pH and stored at room temperature for 24 or 48 hours in sealed glass containers. All solutions were prepared at a nominal concentration of 0.5 mg/ml. Percent degradation was determined by ultra-performance liquid chromatography (UPLC) on a Waters ACQUITY UPLC with a photodiode array (PDA) detector using a Waters ACQUITY BEH C18 1.7 um 2.1×50 mm column. Run conditions for the analyses were as follows: • Mobile phase A: 50 mM sodium phosphate pH 3.0 • Mobile phase B: Acetonitrile • Detection wavelength: 279 nm • Flow: 0.5 ml/min • Column temperature: 30 C • Injection volume: 2 μl • Gradient (linear transitions) are shown in Table 12A: Identification of the known components droxidopa and dihydroxybenzaldehyde was confirmed through retention time and spectral match against pure materials of known identity. Degradation results were quantified as a percent area of degradation peaks versus total area of all degradation/droxidopa peaks. Results for pH 10.0 and pH 12.0 samples were estimated at >90% due to a significant number of peaks present near the retention time of droxidopa.

[5] = 16 mmol citric acid, room temperature
[6] = 16 mmol disodium citrate combined with 16 mmol citric acid to achieve pH 4.0, room temperature
[7] = pH 3, 50 mM NaH2PO4 adjusted to pH 3.0 with Phosphoric acid
[8] = pH 7, 50 mM NaH2PO4 adjusted to pH 7.0 with 1N Sodium hydroxide

Solid state stability ([1]; citric acid present with the drug in solid state (powder or uncoated granules)): unstable | Solid state stability ([1]; droxidopa granules blended with monosodium citrate, 7 days): stable | Drug degradation in solid state ([1]; granules/pellets coated with a protective layer and blended with citric acid): reduced | solubility ([2]; solution of pH 1.2 (composition not stated), pH 1.2, simulated gastric fluid): 15500 µg/mL (≈ 72.7 mM) | solubility ([2]; solution of pH 3.0 (composition not stated), pH 3, aqueous buffer): 2620 µg/mL (≈ 12.3 mM) | solubility ([2]; solution of pH 4.5 (composition not stated), pH 4.5, aqueous buffer): 2350 µg/mL (≈ 11 mM) | solubility ([2]; solution of pH 5.5 (composition not stated), pH 5.5, aqueous buffer): 2300 µg/mL (≈ 10.8 mM) | solubility ([2]; solution of pH 6.8 (composition not stated), pH 6.8, aqueous buffer): 2470 µg/mL (≈ 11.6 mM) | Stability of saturated droxidopa in solution ([3]; citrate buffer (pH 4.0)): stable | Stability of saturated droxidopa in solution ([3]; citric acid solution (pH 2.5)): stable | Total degradation, 7 day Exposure [3, 5]: 0.0% | Total degradation, 24 day Exposure [3, 5]: 0.1% | Total degradation, 7 day Exposure [3, 6]: 0.0% | Total degradation, 24 day Exposure [3, 6]: 0.1% | Total degradation, 7 day Exposure ([3]; Deionized water, room temperature): 0.1% | Stability in solution ([4]; acidic solution): stable | Stability in solution ([4]; neutral or alkaline conditions): degrades | Total degradation, 24-hour Exposure ([4]; pH 1.2, 0.1N HCl): <0.05% | Total degradation, 48-hour Exposure ([4]; pH 1.2, 0.1N HCl): <0.05% | Total degradation, 24-hour Exposure [4, 7]: <0.05% | Total degradation, 48-hour Exposure [4, 7]: <0.05% | Total degradation, 24-hour Exposure [4, 8]: 0.39% | Total degradation, 48-hour Exposure [4, 8]: 1.23% | Total degradation, 24-hour Exposure ([4]; pH 10, 25 mM HCO2NH4 adjusted to pH 10.0 with NH4OH, estimated): >90% | Total degradation, 24-hour Exposure ([4]; pH 12, 0.01N NaOH, estimated): >90%
Compound: N[C@H](C(=O)O)[C@H](O)c1ccc(O)c(O)c1 [droxidopa, (−)-threo-3-(3,4-Dihydroxyphenyl)-L-serine]
